The source made the active and inactive calls. The rule behind the calls is not given here.
Key:
[1] = biological target: T1, Bcr/Abl fusion protein (Homo sapiens) (UniProt P00519+P11274); test: Inhibition of BCR-ABL signaling pathway in human K562 cells assessed as suppression of STAT5 phosphorylation at 100 uM after 8 hrs in presence of imatinib by Western blot analysis; assay type: cell-based
[2] = biological target: T1, Bcr/Abl fusion protein (Homo sapiens); test: Inhibition of BCR-ABL signaling pathway in human K562 cells assessed as suppression of CrkL phosphorylation at 100 uM after 8 hrs in presence of imatinib by Western blot analysis; assay type: cell-based
[3] = Effect on BCR-ABL protein levels in human K562 cells assessed as BCR-ABL to beta-tubulin ratio at 100 uM after 8 hrs in presence of imatinib by Western blot analysis relative to control; assay type: ADME, cell-based; details: k562, 8 h
[4] = biological target: T1, Bcr/Abl fusion protein (Homo sapiens); test: Inhibition of BCR-ABL phosphorylation in human K562 cells at 100 uM after 8 hrs in presence of imatinib by Western blot analysis; assay type: cell-based
[5] = biological target: T2, Baculoviral IAP repeat-containing protein 2/Tyrosine-protein kinase ABL1/Breakpoint cluster region protein (Homo sapiens) (UniProt P00519+P11274+Q13490); test: Induction of cIAP1-mediated BCR-ABL protein degradation in human K562 cells assessed as BCR-ABL to beta-tubulin ratio at 100 uM after 8 hrs by Western blot analysis relative to control; assay type: cell-based
T2 sequence (P00519 whole entry, looked up): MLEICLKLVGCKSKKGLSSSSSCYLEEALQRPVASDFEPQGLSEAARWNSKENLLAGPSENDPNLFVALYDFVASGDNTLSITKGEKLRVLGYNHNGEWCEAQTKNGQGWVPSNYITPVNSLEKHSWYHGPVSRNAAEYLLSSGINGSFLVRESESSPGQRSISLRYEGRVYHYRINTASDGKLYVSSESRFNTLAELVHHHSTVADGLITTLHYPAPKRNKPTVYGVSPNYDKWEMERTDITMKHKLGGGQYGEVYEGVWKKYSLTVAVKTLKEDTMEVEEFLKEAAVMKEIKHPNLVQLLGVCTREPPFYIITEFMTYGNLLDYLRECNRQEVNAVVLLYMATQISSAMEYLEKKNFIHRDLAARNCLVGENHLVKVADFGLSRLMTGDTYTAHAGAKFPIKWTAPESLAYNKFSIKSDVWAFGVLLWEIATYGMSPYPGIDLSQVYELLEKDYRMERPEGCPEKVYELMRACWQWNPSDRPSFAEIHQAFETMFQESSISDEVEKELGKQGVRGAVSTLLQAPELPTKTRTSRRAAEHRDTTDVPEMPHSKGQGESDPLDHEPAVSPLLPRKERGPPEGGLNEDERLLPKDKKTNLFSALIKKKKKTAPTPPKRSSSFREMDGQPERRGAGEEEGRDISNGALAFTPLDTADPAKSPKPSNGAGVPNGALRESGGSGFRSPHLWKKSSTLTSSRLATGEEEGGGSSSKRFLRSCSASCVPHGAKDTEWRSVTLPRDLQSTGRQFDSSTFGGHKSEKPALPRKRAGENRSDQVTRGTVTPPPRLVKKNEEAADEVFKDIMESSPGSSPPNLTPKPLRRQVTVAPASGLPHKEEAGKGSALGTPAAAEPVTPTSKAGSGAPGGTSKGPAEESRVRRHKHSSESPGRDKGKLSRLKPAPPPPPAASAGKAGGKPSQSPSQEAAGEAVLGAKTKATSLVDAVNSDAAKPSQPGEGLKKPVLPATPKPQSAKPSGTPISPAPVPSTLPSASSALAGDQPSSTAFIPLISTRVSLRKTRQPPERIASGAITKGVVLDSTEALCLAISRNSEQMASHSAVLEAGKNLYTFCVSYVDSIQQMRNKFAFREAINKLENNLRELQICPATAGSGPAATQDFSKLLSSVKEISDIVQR
T2 sequence (P11274 whole entry, looked up): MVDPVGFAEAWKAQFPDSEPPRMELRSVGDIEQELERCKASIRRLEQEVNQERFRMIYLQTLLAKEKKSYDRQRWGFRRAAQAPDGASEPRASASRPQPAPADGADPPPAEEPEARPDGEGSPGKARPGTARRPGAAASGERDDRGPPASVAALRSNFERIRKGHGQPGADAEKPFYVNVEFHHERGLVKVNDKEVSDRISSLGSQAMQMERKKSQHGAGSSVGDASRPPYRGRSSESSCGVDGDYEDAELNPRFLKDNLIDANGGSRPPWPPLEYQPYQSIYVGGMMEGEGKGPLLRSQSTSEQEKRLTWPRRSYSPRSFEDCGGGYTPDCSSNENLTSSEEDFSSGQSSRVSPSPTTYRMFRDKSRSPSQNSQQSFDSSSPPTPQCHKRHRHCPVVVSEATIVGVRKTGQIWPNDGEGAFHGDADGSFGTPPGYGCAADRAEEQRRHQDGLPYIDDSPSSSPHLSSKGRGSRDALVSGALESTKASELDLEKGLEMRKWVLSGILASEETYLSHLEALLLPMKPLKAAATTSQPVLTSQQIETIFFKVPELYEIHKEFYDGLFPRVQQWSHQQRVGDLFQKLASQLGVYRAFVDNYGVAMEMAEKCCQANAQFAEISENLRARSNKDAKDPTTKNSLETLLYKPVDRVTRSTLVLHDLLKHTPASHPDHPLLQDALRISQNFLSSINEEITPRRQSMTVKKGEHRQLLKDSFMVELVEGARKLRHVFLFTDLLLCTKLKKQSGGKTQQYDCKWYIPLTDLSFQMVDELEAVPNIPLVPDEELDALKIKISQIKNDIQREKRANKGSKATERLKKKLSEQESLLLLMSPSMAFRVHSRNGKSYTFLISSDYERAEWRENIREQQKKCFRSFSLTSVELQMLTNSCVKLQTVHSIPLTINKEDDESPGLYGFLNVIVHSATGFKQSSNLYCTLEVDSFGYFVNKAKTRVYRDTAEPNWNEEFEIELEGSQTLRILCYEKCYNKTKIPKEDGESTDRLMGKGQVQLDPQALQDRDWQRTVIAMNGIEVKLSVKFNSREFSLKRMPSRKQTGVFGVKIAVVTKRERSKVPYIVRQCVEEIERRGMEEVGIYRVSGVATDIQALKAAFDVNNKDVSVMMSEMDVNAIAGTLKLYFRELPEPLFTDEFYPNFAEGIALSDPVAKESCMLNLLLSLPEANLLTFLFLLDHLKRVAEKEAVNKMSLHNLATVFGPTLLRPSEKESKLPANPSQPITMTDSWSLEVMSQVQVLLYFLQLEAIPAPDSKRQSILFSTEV
T2 sequence (Q13490 whole entry, looked up): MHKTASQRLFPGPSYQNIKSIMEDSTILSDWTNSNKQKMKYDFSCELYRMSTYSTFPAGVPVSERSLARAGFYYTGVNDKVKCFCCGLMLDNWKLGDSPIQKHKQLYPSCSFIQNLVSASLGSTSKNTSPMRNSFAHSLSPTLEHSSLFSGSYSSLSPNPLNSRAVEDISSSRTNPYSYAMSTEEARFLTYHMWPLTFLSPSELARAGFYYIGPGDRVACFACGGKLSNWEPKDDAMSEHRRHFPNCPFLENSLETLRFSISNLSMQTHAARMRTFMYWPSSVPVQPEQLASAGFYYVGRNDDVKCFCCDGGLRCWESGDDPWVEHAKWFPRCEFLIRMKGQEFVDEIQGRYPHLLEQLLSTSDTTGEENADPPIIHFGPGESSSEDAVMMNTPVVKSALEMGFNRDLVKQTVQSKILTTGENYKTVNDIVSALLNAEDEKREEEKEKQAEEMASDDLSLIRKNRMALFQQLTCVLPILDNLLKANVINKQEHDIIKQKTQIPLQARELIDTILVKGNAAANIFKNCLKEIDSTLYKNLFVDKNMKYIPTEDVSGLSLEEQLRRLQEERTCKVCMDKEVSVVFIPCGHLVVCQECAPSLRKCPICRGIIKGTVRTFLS

[6] = biological target: T2, Baculoviral IAP repeat-containing protein 2/Tyrosine-protein kinase ABL1/Breakpoint cluster region protein (Homo sapiens); test: Induction of cIAP1-mediated BCR-ABL protein degradation in human K562 cells assessed as BCR-ABL to beta-tubulin ratio at 30 uM after 24 hrs by Western blot analysis relative to control; assay type: cell-based
[7] = biological target: T2, Baculoviral IAP repeat-containing protein 2/Tyrosine-protein kinase ABL1/Breakpoint cluster region protein (Homo sapiens); test: Induction of cIAP1-mediated BCR-ABL protein degradation in human K562 cells assessed as BCR-ABL to beta-tubulin ratio at 100 uM after 24 hrs by Western blot analysis relative to control; assay type: cell-based
[8] = Cytotoxicity against human K562 cells assessed as cell growth at 30 to 100 uM after 24 hrs by cell counting kit-8 assay relative to control; assay type: functional
[9] = biological target: T2, Baculoviral IAP repeat-containing protein 2/Tyrosine-protein kinase ABL1/Breakpoint cluster region protein (Homo sapiens); test: Induction of cIAP1-mediated BCR-ABL protein degradation in human K562 cells assessed as BCR-ABL to beta-tubulin ratio at 30 uM after 8 hrs by Western blot analysis relative to control; assay type: cell-based
[10] = biological target: T1, Bcr/Abl fusion protein (Homo sapiens); test: Inhibition of BCR-ABL signaling pathway in human K562 cells assessed as suppression of STAT5 phosphorylation at 100 uM after 8 hrs by Western blot analysis; assay type: cell-based
K562 = test: Cytotoxicity against human K562 cells assessed as cell growth inhibition at 30 to 100 uM after 24 hrs by cell counting kit-8 assay; assay type: functional, cell-based
[11] = biological target: T2, Baculoviral IAP repeat-containing protein 2/Tyrosine-protein kinase ABL1/Breakpoint cluster region protein (Homo sapiens); test: Induction of cIAP1-mediated BCR-ABL protein degradation in human K562 cells after 8 hrs by Western blot analysis; assay type: cell-based
[12] = biological target: T1, Bcr/Abl fusion protein (Homo sapiens); test: Inhibition of BCR-ABL signaling pathway in human K562 cells assessed as suppression of CrkL phosphorylation at 100 uM after 8 hrs by Western blot analysis; assay type: cell-based
[13] = biological target: T1, Bcr/Abl fusion protein (Homo sapiens); test: Inhibition of BCR-ABL phosphorylation in human K562 cells at 100 uM after 8 hrs by Western blot analysis; assay type: cell-based
[14] = Effect on BCR-ABL protein levels in human K562 cells assessed as BCR-ABL to beta-tubulin ratio at 100 uM after 8 hrs by Western blot analysis relative to control; assay type: ADME, cell-based; details: k562, 8 h

T1 sequence (P00519 whole entry, looked up, the tested form may be a part): as the sequence (P00519 whole entry, looked up) above
T1 sequence (P11274 whole entry, looked up, the tested form may be a part): as the sequence (P11274 whole entry, looked up) above

Structure (SMILES) | inhibition [1] | inhibition [2] | Activity [3] [%] | inhibition [4] | Activity [5] [%] | Activity [6] [%] | Activity [7] [%] | Activity [8] [%] | Activity [9] [%] | inhibition [10] | growth inhibition (GI) (K562) | Activity [11] | inhibition [12] | inhibition [13] | Activity [14] [%]
COC(=O)[C@H](CC(C)C)NC(=O)[C@@H](O)[C@H](N)Cc1ccccc1 [BESTATIN METHYL ESTER] | Active | Active | 99 | Active |  |  |  |  |  |  |  |  |  |  | 
Cc1ccc(NC(=O)c2ccc(CNC(=O)CCCCNC(=O)[C@H](CC(C)C)NC(=O)[C@@H](O)[C@H](N)Cc3ccccc3)cc2)cc1Nc1nccc(-c2cccnc2)n1.Cl |  |  |  |  | 113 | 105 | 81 | 100 | 121 |  |  |  |  |  | 
Cc1ccc(NC(=O)c2ccc(CNC(=O)CCCCCCNC(=O)[C@H](CC(C)C)NC(=O)[C@@H](O)[C@H](N)Cc3ccccc3)cc2)cc1Nc1nccc(-c2cccnc2)n1.Cl |  |  |  |  | 17 | 23 | 3 |  | 59 | Active | Active | Dose-dependent effect | Active | Active | 27
Cc1ccc(NC(=O)c2ccc(CNC(=O)CCCCCCCCCCNC(=O)[C@H](CC(C)C)NC(=O)[C@@H](O)[C@H](N)Cc3ccccc3)cc2)cc1Nc1nccc(-c2cccnc2)n1 |  |  |  |  | 94 | 14 | 8 |  | 77 |  | Active |  |  |  | 

Reference: ChEMBL document CHEMBL3860080, “Development of BCR-ABL degradation inducers via the conjugation of an imatinib derivative and a cIAP1 ligand” (Bioorg Med Chem Lett, 2016)
